Reference: patent US20060135568A1, “Methods of treating microbial infections in humans and animals” (priority 2002, published 2006)
Values after ≈ are worked out from the molar mass of the structure shown. “Also recorded” adds a separate entry of the source. Like-named read-outs stand apart in the source and are kept apart here.

Key:
[1] = tested on: ATP level in BCG cultures; format: cell-based, M. bovis BCG; conditions: for ATP[M] levels, single time-point and time-course experiments: all time-points tested
[2] = tested on: mycolic acid synthesis in BCG; format: cell-based, M. bovis BCG; conditions: BCG early log phase, 100 μg/ml, 10 minutes post exposure
[3] = tested on: b-subunit and hsp homologs; assay: 2-dimensional protein profiles of OSA-treated M. smegmatis; format: cell-based
Method: Protein assays: mycobacteria and cultures. Either DMSO (diluent), OSA. (6.25 and 100 μg/ml), cerulenin (24 μg/ml) or isoniazid (1.0 μg/ml) were added to 20 ml control and treated cultures, respectively. Following additional incubation for 24 hours under the same conditions, 2 ml aliquots of cells were harvested by centrifugation (13,000× g for 30 seconds), the supernatant removed, and the process repeated once using 1×PBS. The cellular contents of each tube were divided into 2 to 3 Eppendorfs (roughly 3 to 5 OD units per tube), and 250 μl of a lysis solution containing 3M urea (Sigma), 0.5% Triton X-100 (Sigma), […] dithiothreitol (DTT) (Gibco BRL, Life Technologies, Gaithersburg, Md.) and […] Pharmalyte (Pharmacia Biotech, Piscataway, N.J.) was added. Subsequently, phenylmethylsulfonyl fluoride (PMSF) (Sigma) (100 μg/ml) and leupeptin (2 μg/ml) (Sigma) were also added. Mixtures containing cells and lysis solution were beadbeaten at maximum speed for 60 seconds in a Biospec Mini-8 beadbeater using 200-300 μm glass beads (Sigma). This process was repeated twice per sample with 30-second intervals on ice between agitations. […] Protein concentration was determined using a standardized colorimetric assay (Coomassie Plus, Pierce, Rockford, Ill.) and BSA standards (Pierce) in a Shimadzu UC-1201 spectrophotometer. Quantitated samples were aliquoted and frozen at −70° C. […]

[4] = tested on: atpF (Rv1306) and hsp (Rv0251c); format: cell-based, M. bovis BCG; conditions: BCG treated overnight
M. tuberculosis H37Rv = assay: BACTEC radiometric growth procedure, activity in the presence of ethanol; format: cell-based, Mycobacterium tuberculosis (H37Rv); conditions: for potentiation of growth inhibition by ethanol: 0.05% ethanol, M. tuberculosis; for MIC: Mycobacterium tuberculosis, H37RV, M. tuberculosis H37Rv, BACTEC
BCG = assay: MIC in BCG; format: cell-based, M. bovis BCG; conditions: Mycobacterium tuberculosis variant bovis BCG
[5] = tested on: mycolic acid synthesis in BCG; conditions: previously reported; cited from earlier work
M. smegmatis = conditions: concentrations up to 100 μg/ml; previously reported; cited from earlier work
[6] = cited from earlier work
[7] = 5 minutes post-exposure, 16× MIC or stated inhibitor concentration

SMILES: C(=NC1CCCCC1)=NC1CCCCC1 [DCCD, dicyclohexylcarbodiimide]
- effect on ATP level versus untreated BCG [1, 7]: statistically significant decrease
- decrease in ATP[M] level ([1]; BCG, 100 μg/ml, all timepoints (1, 3, 24 hours)): 95%
- ATP[M] levels, single time-point and time-course experiments ([1]; BCG): decreased significantly
- decrease in total mycolic acid levels compared to untreated controls [2]: 79%

SMILES: CC[C@@H](CO)NCCN[C@@H](CC)CO [EMB, ethambutol]
- effect on ATP level versus untreated BCG [1, 7]: no appreciable difference

SMILES: NNC(=O)c1ccncc1 [INH, isoniazid]
- effect on ATP level versus untreated BCG [1, 7]: no appreciable difference

SMILES: CCCCCCCCS(=O)(=O)CC(N)=O [OSA, n-octanesulfonylacetamide]
- overexpression of hsp and b-subunit homologs [3]: no proteins consistent with these molecular weights or pI's were overexpressed; also recorded: neither protein was overexpressed
- level of hsp expression by RT-PCR [4]: marked increase
- effect on ATP level versus untreated BCG [1, 7]: significantly decreased
- reduction in ATP[M] versus untreated controls ([1]; BCG, 100 μg/ml, 24 hours): 85%
- decrease in ATP[M] level versus untreated controls ([1]; BCG, 100 μg/ml, one hour post exposure): 46%
- reduction in ATP[M] versus untreated controls ([1]; BCG, 100 μg/ml, three hours): 54%
- ATP[M] levels, single time-point and time-course experiments ([1]; BCG): decreased significantly
- potentiation of growth inhibition by ethanol (M. tuberculosis H37Rv): potentiated
- MIC (M. tuberculosis H37Rv; with 0.05% ethanol): < 1.5 µg/mL
- MIC (M. tuberculosis H37Rv; without ethanol, read-out: MIC): 6.25 µg/mL
- decrease in total mycolic acid levels compared to untreated controls [2]: 43%
- MIC (BCG): 6.25 µg/mL (≈ 26.6 µM)
- mycolic acid levels in BCG [5]: decreased
- susceptibility of M. smegmatis (M. smegmatis): intrinsically resistant
- limit of solubility [6]: 100 µg/mL

SMILES: CO[C@H]1/C=C/O[C@@]2(C)Oc3c(C)c(O)c4c(O)c(c(/C=N/N5CCN(C)CC5)c(O)c4c3C2=O)NC(=O)/C(C)=C\C=C\[C@H](C)[C@H](O)[C@@H](C)[C@@H](O)[C@@H](C)[C@H](OC(C)=O)[C@@H]1C [RIF, rifampin]
- effect on ATP level versus untreated BCG [1, 7]: no appreciable difference

SMILES: [H]/N=C(/N)N[C@H]1[C@H](O)[C@@H](O)[C@H](O[C@@H]2O[C@@H](C)[C@](O)(C=O)[C@H]2O[C@@H]2O[C@@H](CO)[C@H](O)[C@@H](O)[C@@H]2NC)[C@@H](N/C(N)=N\[H])[C@@H]1O [STR, streptomycin]
- effect on ATP level versus untreated BCG [1, 7]: no appreciable difference
- potentiation of growth inhibition by ethanol (M. tuberculosis H37Rv): No potentiation

SMILES: O=C(CC(=O)C(F)(F)F)c1cccs1 [TTFA, thenoyltrifluoroaceton]
- effect on ATP level versus untreated BCG [1, 7]: only a moderate decrease
- decrease in total mycolic acid levels compared to untreated controls [2]: 46%

SMILES: C/C=C/C/C=C/CCC(=O)[C@H]1O[C@H]1C(N)=O [cerulenin]
- effect on ATP level versus untreated BCG [1, 7]: No appreciable decrease

SMILES: O=c1oc2ccccc2c(O)c1Cc1c(O)c2ccccc2oc1=O [dicumarol]
- effect on ATP level versus untreated BCG [1, 7]: No appreciable decrease

SMILES: C=C(C)[C@H]1Cc2c(ccc3c2O[C@@H]2COc4cc(OC)c(OC)cc4[C@@H]2C3=O)O1 [rotenone]
- effect on ATP level versus untreated BCG [1]: No appreciable decrease
